Reference: the supplement of paper PMC4862054

Key:
Settings in all cases: incubation time: 72 h
HDQ-P1 [1] = experiment: drug sensitivity score (DSS), CellTiter-Blue viability (DSS (AUC-based score)); higher = stronger viability inhibition; extreme values may be limits of the assay
Method: (§1)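 DSRT with the CellTiter-Blue (resazurin reduction) viability readout, fluorescence 560/590 nm, 72 h incubation. Plates were normalised to DMSO and benzethonium chloride controls. DSS is computed from the area under the fitted dose-response curve (5 or 9 concentrations).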

BT-549 [2] = experiment: as above
Method: as §1

MDA-MB-453 = experiment: as above
Method: as §1

SK-BR-3 = experiment: as above
Method: as §1

CAL-85-1 = experiment: as above
Method: as §1

DU-4475 [3] = experiment: as above
Method: as §1

MDA-MB-436 [4] = experiment: as above
Method: as §1

MFM-223 [5] = experiment: as above
Method: as §1

CAL-148 [6] = experiment: as above
Method: as §1

MDA-MB-468 [7] = experiment: as above
Method: as §1

BT-474 [8] = experiment: as above
Method: as §1

CAL-120 [9] = experiment: as above
Method: as §1

CAL-51 [10] = experiment: as above
Method: as §1

Hs578T = experiment: as above
Method: as §1

MDA-MB-231 = experiment: as above
Method: as §1

HCC1143 = experiment: as above
Method: as §1

HCC1937 = experiment: as above
Method: as §1

HCC1599 = experiment: as above
Method: as §1

HDQ-P1 [11] = experiment: normalised viability (% of control), CellTiter-Blue; higher = more viable cells (about 100 = DMSO control)
Method: (§2)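 DSRT, CellTiter-Blue viability, 72 h incubation. Signal is normalised to DMSO and benzethonium chloride controls. Value is the normalised response at dose 3.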

BT-549 [12] = experiment: as above
Method: as §2

DU-4475 [13] = experiment: as above
Method: as §2

MDA-MB-436 [14] = experiment: as above
Method: as §2

MFM-223 [15] = experiment: as above
Method: as §2

CAL-148 [16] = experiment: as above
Method: as §2

MDA-MB-468 [17] = experiment: as above
Method: as §2

BT-474 [18] = experiment: as above
Method: as §2

CAL-120 [19] = experiment: as above
Method: as §2

CAL-51 [20] = experiment: as above
Method: as §2

SMILES | drug sensitivity score (HDQ-P1 [1]) | drug sensitivity score (BT-549 [2]) | drug sensitivity score (MDA-MB-453) | drug sensitivity score (SK-BR-3) | drug sensitivity score (CAL-85-1) | drug sensitivity score (DU-4475 [3]) | drug sensitivity score (MDA-MB-436 [4]) | drug sensitivity score (MFM-223 [5]) | drug sensitivity score (CAL-148 [6]) | drug sensitivity score (MDA-MB-468 [7]) | drug sensitivity score (BT-474 [8]) | drug sensitivity score (CAL-120 [9]) | drug sensitivity score (CAL-51 [10]) | drug sensitivity score (Hs578T) | drug sensitivity score (MDA-MB-231) | drug sensitivity score (HCC1143) | drug sensitivity score (HCC1937) | drug sensitivity score (HCC1599) | normalised viability (HDQ-P1 [11]; 40 nM) | normalised viability (BT-549 [12]; 400 nM) | normalised viability (DU-4475 [13]; 40 nM) | normalised viability (MDA-MB-436 [14]; 400 nM) | normalised viability (MFM-223 [15]; 400 nM) | normalised viability (CAL-148 [16]; 40 nM) | normalised viability (MDA-MB-468 [17]; 400 nM) | normalised viability (BT-474 [18]; 400 nM) | normalised viability (CAL-120 [19]; 400 nM) | normalised viability (CAL-51 [20]; 40 nM) | normalised viability (HDQ-P1 [11]; 10 nM) | normalised viability (BT-549 [12]; 100 nM) | normalised viability (DU-4475 [13]; 10 nM) | normalised viability (MDA-MB-436 [14]; 100 nM) | normalised viability (MFM-223 [15]; 100 nM) | normalised viability (CAL-148 [16]; 10 nM) | normalised viability (MDA-MB-468 [17]; 100 nM) | normalised viability (BT-474 [18]; 100 nM) | normalised viability (CAL-120 [19]; 100 nM) | normalised viability (CAL-51 [20]; 10 nM)
CC[C@@H]1C(=O)OC[C@@H]1Cc1cncn1C [Pilocarpine] | 0 | 0 | 0.965 | 0 | 0 | 0 | 0 | 0 | 0 | 0 | 0 | 0 | 0 | 0 | 0 | 0 | 0 | 0 | 108% | 111% | 108% | 105% | 92.8% | 97.4% | 99.6% | 116% | 107% | 102% | – | – | – | – | – | – | – | – | – | –
Cn1cc(C2=Nc3cc(NC(=O)C(N)C4CCCCC4)cc4c3C2=CNNC4=O)cn1 (configuration not stated) | – | – | – | – | – | – | – | – | – | – | – | – | – | – | – | – | – | – | – | – | – | – | – | – | – | – | – | – | 98.4% | 100% | 108% | 93.4% | 69.2% | 93.1% | 106% | 108% | 89.9% | 98.2%
COc1cc2c(cc1O)CC[C@@H]1[C@@H]2CC[C@]2(C)[C@@H](O)CC[C@@H]12 [2-methoxyestradiol] | 5.38 | 10.5 | 9.7 | 2.73 | 5.36 | 6.57 | 7.65 | 0 | 0 | 2.79 | 6.94 | 8.63 | 5.78 | 9.08 | 11.2 | 4.05 | 9.5 | 0 | – | – | – | – | – | – | – | – | – | – | 98.8% | 91.7% | 106% | 100% | 108% | 93.3% | 102% | 121% | 87.9% | 118%
CC(C)(C)c1cnc(CSc2cnc(NC(=O)C3CCNCC3)s2)o1 [SNS-032] | 21.3 | 17.6 | 20 | 22 | 22.1 | 20.1 | 15 | 17.5 | 19.6 | 16.5 | 15.2 | 18.9 | 13.8 | 23.1 | 21.1 | 17.4 | 20.4 | 18 | – | – | – | – | – | – | – | – | – | – | 132% | 91.7% | 101% | 104% | 82.7% | 89.1% | 96.9% | 85.5% | 69% | 117%
CC(=O)c1c(C)c2cnc(Nc3ccc(N4CCNCC4)cn3)nc2n(C2CCCC2)c1=O | 0 | 0 | 8.21 | 0 | 0 | 0 | 0 | 0 | 0 | 0 | 0 | 8.76 | 5.13 | 2.19 | 9.09 | 6.22 | 0 | 0 | – | – | – | – | – | – | – | – | – | – | 108% | 108% | 107% | 111% | 88.1% | 91.3% | 105% | 95.7% | 73.8% | 107%
